# Literature values as cited in patent publication EP3292864A1, “MODIFIED RELEASE TABLET COMPOSITION COMPRISING MIRABEGRON” (Synthon B.V., priority 2017, dated 2018).
smiles,measurement,setting,value
"Nc1nc(CC(=O)Nc2ccc(CCNC[C@H](O)c3ccccc3)cc2)cs1 [Mirabegron, (R)-2-(2-aminothiazol-4-yl)-4'-[2-[(2-hydroxy-2-phenylethyl)amino]ethyl]acetic acid anilide]",solubility in water,assessment report of Betmiga® published by the European Medicines Agency,soluble in water between neutral to acidic pH
same,solubility,per BCS class,high solubility
